Assay results reported in ChEMBL document CHEMBL5678818, “Discovery of potent SOS1 inhibitors that block RAS activation via disruption of the RAS-SOS1 interaction” (Proc Natl Acad Sci U S A, 2019).

Assays:
[1] = biological target: Proto-oncogene tyrosine-protein kinase Src (Homo sapiens) (UniProt P12931); test: Inhibition of SRC (unknown origin) assessed as residual activity at 1000 nM by KINOMEscan analysis relative to control
[2] = biological target: T1, Phosphatidylinositol 5-phosphate 4-kinase type-2 gamma (Homo sapiens) (UniProt Q8TBX8); test: Inhibition of PIP5K2C (unknown origin) assessed as residual activity at 1000 nM by KINOMEscan analysis relative to control
T1 sequence (whole entry): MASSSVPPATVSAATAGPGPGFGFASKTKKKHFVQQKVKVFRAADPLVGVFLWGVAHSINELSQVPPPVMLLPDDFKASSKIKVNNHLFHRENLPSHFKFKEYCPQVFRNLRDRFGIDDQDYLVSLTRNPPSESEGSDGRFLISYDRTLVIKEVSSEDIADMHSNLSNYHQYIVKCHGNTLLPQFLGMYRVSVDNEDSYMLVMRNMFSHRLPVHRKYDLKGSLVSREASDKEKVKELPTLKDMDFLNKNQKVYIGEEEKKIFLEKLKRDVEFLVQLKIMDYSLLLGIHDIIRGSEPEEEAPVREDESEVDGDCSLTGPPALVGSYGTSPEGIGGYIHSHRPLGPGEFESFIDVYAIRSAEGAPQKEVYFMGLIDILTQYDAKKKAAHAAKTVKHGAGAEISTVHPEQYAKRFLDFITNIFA

[3] = biological target: T2, Myosin-IIIb (Homo sapiens) (UniProt Q8WXR4); test: Inhibition of MYO3B (unknown origin) assessed as residual activity at 1000 nM by KINOMEscan analysis relative to control
T2 sequence (whole entry): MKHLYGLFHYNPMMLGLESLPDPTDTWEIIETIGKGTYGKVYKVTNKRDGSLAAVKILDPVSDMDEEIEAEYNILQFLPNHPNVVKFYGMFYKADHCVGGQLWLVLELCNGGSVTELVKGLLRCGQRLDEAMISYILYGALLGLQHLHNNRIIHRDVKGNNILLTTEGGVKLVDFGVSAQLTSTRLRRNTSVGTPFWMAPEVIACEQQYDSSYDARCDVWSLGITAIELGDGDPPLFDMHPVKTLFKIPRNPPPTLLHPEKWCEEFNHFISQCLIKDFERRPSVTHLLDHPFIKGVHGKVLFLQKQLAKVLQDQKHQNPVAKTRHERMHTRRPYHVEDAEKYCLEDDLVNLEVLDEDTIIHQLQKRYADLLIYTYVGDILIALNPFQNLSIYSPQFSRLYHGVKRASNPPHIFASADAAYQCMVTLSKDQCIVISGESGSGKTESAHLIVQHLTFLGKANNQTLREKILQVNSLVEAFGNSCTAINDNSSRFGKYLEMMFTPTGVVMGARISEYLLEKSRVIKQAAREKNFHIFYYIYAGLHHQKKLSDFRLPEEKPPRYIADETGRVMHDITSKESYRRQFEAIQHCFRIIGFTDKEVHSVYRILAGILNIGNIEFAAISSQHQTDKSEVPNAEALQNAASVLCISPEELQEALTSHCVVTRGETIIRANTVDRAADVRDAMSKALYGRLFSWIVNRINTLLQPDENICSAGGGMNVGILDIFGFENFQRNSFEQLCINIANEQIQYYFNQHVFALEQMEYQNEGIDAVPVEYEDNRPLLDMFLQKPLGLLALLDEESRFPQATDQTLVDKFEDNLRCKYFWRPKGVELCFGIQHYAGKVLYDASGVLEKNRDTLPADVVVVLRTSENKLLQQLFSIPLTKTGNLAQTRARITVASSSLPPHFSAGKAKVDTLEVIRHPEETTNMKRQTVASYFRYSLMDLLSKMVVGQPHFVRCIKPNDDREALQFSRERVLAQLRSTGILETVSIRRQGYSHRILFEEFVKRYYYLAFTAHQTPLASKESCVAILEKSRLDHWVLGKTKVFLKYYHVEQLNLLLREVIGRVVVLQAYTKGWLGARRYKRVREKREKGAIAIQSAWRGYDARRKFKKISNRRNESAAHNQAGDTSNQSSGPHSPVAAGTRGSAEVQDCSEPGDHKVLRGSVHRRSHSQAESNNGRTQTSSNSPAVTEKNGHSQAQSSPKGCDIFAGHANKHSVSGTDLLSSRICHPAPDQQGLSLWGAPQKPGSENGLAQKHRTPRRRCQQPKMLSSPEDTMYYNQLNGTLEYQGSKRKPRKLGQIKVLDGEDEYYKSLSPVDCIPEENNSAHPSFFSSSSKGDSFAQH

Proto-oncogene tyrosine-protein kinase Src (Homo sapiens), sequence (P12931 2-536 limits assumed): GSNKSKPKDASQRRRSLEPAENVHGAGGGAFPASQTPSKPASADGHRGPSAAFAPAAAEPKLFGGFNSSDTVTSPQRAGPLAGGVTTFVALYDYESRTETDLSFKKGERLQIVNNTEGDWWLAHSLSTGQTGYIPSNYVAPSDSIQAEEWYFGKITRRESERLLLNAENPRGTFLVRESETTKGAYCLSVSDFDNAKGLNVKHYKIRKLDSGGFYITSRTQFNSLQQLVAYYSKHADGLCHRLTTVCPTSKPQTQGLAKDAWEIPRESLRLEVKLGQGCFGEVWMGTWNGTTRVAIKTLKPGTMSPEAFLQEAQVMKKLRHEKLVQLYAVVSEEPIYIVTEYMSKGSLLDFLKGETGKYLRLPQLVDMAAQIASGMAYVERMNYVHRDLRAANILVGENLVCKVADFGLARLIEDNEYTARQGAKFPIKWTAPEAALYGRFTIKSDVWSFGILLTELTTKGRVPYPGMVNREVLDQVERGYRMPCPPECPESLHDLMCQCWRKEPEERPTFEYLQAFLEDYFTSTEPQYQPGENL

SMILES | Activity [1] [%] | Activity [2] [%] | Activity [3] [%]
COc1cc2ncnc(N[C@H](C)c3cccc4ccccc34)c2cc1OC | 96 | 80 | 88
COc1cc2nc(C)nc(N[C@H](C)c3cccc(-c4cn[nH]c4)c3)c2cc1OC | 97 | 69 | 89
